Results published in PMC9481570, “A small molecule antagonist of SMN disrupts the interaction between SMN and RNAP II” (Nature Communications, 2022).
Several values for one entry are separate records, joined by “and”; a condition that tells them apart may be missing. Equal entries are not always repeated.

Columns and labels:
Experiment in all cases: Affinity-purification and mass spectrometry (AP-MS) chemical proteomics, all proteins;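 as to Difference: 200 µM free competitor with 20 µM biotin probe overnight in lysate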
Type in all cases: binding
[1] = molecular target: T1, proteins displaced from immobilized biotin-Cmpd 1 pulldowns (U2OS cell lysate) (Homo sapiens, UniProt P06493); details: GN=CDK1 (P06493)
T1 construct: endogenous in cells; host or cells: U2OS
T1 sequence (P06493 whole entry): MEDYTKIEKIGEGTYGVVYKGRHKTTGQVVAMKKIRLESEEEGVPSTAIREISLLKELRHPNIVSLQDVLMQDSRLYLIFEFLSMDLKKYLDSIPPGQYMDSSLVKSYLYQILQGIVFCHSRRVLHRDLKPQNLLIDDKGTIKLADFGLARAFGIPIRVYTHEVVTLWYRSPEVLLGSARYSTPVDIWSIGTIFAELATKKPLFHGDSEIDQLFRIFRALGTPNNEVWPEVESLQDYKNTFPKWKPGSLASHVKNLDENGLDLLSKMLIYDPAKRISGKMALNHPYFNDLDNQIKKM

[2] = molecular target: T2, proteins displaced from immobilized biotin-Cmpd 1 pulldowns (U2OS cell lysate) (Homo sapiens, UniProt Q15050); details: GN=RRS1 (Q15050)
T2 construct: endogenous in cells; host or cells: U2OS
T2 sequence (Q15050 whole entry): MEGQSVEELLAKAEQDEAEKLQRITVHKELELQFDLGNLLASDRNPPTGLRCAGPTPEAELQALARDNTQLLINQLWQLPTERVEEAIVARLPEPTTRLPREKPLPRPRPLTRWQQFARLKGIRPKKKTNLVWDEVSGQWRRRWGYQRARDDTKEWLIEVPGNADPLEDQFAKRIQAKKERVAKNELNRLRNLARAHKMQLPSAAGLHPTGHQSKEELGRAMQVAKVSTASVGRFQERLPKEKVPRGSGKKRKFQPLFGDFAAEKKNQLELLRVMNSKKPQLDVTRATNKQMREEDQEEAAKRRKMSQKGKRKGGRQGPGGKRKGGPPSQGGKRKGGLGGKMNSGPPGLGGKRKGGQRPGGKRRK

[3] = molecular target: T3, proteins displaced from immobilized biotin-Cmpd 1 pulldowns (U2OS cell lysate) (Homo sapiens, UniProt Q13867); details: GN=BLMH (Q13867)
T3 construct: endogenous in cells; host or cells: U2OS
T3 sequence (Q13867 whole entry): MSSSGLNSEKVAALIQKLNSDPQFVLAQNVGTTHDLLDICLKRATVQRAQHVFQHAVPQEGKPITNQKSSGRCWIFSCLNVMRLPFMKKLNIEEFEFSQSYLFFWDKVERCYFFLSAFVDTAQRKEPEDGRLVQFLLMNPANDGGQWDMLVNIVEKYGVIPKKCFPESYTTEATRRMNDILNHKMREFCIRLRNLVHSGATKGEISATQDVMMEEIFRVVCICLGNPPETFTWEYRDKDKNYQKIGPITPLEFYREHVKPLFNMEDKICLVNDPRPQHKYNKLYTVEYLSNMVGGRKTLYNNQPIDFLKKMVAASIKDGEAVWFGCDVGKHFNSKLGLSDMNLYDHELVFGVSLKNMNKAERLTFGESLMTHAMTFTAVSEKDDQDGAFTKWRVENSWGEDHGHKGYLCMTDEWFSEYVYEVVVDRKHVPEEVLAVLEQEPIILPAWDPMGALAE

[4] = molecular target: T4, proteins displaced from immobilized biotin-Cmpd 1 pulldowns (U2OS cell lysate) (Homo sapiens, UniProt P20700); details: GN=LMNB1 (P20700)
T4 construct: endogenous in cells; host or cells: U2OS
T4 sequence (P20700 whole entry): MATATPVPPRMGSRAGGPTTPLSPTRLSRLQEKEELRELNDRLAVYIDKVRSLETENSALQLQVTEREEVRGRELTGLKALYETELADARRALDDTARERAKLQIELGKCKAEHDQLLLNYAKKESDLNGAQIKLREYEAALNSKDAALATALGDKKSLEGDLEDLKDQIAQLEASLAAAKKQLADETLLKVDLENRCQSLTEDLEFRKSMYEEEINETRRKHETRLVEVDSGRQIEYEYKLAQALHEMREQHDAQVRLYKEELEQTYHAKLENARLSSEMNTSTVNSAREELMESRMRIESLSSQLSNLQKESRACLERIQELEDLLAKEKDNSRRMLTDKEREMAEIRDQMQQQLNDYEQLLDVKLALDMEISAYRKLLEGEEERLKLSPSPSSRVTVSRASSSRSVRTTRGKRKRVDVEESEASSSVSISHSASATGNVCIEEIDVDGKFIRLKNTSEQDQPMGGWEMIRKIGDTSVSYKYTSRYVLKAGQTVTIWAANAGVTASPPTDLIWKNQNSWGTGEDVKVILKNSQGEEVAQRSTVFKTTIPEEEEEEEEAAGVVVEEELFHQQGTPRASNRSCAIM

[5] = molecular target: T5, proteins displaced from immobilized biotin-Cmpd 1 pulldowns (U2OS cell lysate) (Homo sapiens, UniProt P47756); details: GN=CAPZB (P47756)
T5 construct: endogenous in cells; host or cells: U2OS
T5 sequence (P47756 whole entry): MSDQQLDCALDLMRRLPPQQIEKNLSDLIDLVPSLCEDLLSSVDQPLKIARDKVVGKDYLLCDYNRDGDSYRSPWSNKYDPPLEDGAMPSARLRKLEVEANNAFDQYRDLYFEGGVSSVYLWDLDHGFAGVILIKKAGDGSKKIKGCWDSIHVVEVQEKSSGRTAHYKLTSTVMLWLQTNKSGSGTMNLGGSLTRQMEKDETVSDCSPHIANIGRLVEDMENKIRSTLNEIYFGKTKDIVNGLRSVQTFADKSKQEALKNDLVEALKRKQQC

[6] = molecular target: T6, proteins displaced from immobilized biotin-Cmpd 1 pulldowns (U2OS cell lysate) (Homo sapiens, UniProt P62424); details: GN=RPL7A (P62424)
T6 construct: endogenous in cells; host or cells: U2OS

[7] = molecular target: T7, proteins displaced from immobilized biotin-Cmpd 1 pulldowns (U2OS cell lysate) (Homo sapiens, UniProt P30048); details: GN=PRDX3 (P30048)
T7 construct: endogenous in cells; host or cells: U2OS
T7 sequence (P30048 62-256): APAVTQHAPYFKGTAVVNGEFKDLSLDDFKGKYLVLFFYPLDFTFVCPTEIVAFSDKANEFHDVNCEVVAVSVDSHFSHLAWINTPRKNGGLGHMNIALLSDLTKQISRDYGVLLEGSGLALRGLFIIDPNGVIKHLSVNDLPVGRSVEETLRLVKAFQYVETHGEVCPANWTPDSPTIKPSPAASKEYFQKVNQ

[8] = molecular target: T8, proteins displaced from immobilized biotin-Cmpd 1 pulldowns (U2OS cell lysate) (Homo sapiens, UniProt Q08945); details: GN=SSRP1 (Q08945)
T8 construct: endogenous in cells; host or cells: U2OS
T8 sequence (Q08945 whole entry): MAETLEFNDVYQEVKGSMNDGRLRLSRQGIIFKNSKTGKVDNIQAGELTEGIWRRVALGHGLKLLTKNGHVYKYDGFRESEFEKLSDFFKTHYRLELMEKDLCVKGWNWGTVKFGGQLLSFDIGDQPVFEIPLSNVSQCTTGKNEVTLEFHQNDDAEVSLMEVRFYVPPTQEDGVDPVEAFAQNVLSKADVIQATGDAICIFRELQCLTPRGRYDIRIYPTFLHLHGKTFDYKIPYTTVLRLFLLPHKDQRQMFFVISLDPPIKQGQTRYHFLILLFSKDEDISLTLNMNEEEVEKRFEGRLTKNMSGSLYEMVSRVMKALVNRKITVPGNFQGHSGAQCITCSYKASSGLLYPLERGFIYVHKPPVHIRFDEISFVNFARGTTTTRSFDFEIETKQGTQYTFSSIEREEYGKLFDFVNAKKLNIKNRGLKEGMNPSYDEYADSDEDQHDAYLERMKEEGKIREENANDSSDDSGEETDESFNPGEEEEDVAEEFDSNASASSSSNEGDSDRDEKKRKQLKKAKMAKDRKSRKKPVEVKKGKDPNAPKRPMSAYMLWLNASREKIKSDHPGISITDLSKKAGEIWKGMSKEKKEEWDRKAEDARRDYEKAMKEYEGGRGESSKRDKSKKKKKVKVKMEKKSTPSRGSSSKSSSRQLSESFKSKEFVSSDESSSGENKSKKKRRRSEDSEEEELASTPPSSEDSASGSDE

[9] = molecular target: T9, proteins displaced from immobilized biotin-Cmpd 1 pulldowns (U2OS cell lysate) (Homo sapiens, UniProt Q9NUQ6); details: GN=SPATS2L (Q9NUQ6)
T9 construct: endogenous in cells; host or cells: U2OS
T9 sequence (Q9NUQ6 whole entry): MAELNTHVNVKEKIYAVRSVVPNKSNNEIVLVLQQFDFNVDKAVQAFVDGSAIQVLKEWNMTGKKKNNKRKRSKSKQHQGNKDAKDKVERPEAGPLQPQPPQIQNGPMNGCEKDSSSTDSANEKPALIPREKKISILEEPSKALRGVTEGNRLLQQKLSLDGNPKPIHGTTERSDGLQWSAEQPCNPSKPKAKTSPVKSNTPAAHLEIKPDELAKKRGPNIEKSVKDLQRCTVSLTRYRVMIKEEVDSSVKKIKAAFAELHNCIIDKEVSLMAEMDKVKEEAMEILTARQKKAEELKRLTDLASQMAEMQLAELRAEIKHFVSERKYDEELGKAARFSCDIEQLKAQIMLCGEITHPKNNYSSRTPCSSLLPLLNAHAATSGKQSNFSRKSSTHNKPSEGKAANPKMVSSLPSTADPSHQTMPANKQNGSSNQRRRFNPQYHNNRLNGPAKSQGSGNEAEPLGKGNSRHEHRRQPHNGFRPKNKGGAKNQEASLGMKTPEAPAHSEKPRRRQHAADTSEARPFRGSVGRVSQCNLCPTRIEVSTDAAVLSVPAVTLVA

[10] = molecular target: T10, proteins displaced from immobilized biotin-Cmpd 1 pulldowns (U2OS cell lysate) (Homo sapiens, UniProt P46783); details: GN=RPS10 (P46783)
T10 construct: endogenous in cells; host or cells: U2OS

Cn1c2c(c(=N)c3c1CCC3)CCC2 [Compound 1, 4-methyl-2,3,4,5,6,7-hexahydrodicyclopenta[b,e]pyridin-8(1H)-imine]
Difference ([1]; Cmpd minus DMSO, -LOG(P-value) 0.868994): -0.7208
iBAQ Cmpd ([1]; replicates 1-3): 20.3513 and 19.7871 and 19.2381
Difference ([2]; Cmpd minus DMSO, -LOG(P-value) 0.720694): 2.281
iBAQ Cmpd ([2]; replicates 1-3): 15.4548 and 18.445 and 19.3119
Difference ([3]; Cmpd minus DMSO, -LOG(P-value) 0.904295): -3.65
iBAQ Cmpd ([3]; replicates 1-3): 19.0378 and 19.0387 and 13.7316
Difference ([4]; Cmpd minus DMSO, -LOG(P-value) 0.765149): 0.6571
iBAQ Cmpd ([4]; replicates 1-3): 20.5307 and 20.0559 and 19.5746
Difference ([5]; Cmpd minus DMSO, -LOG(P-value) 1.09295): -1.787
iBAQ Cmpd ([5]; replicates 1-3): 15.5737 and 16.3289 and 18.0803
Difference ([6]; Cmpd minus DMSO, -LOG(P-value) 0.865251): 0.2314
iBAQ Cmpd ([6]; replicates 1-3): 25.9383 and 25.6872 and 25.6067
Difference ([7]; Cmpd minus DMSO, -LOG(P-value) 1.19354): -0.7441
iBAQ Cmpd ([7]; replicates 1-3): 16.0313 and 15.2476 and 15.6479
Difference ([8]; Cmpd minus DMSO, -LOG(P-value) 0.732843): 0.3628
iBAQ Cmpd ([8]; replicates 1-3): 19.198 and 18.7704 and 18.706
Difference ([9]; Cmpd minus DMSO, -LOG(P-value) 0.875271): 3.1666
iBAQ Cmpd ([9]; replicates 1-3): 21.4367 and 18.8839 and 18.3449
Difference ([10]; Cmpd minus DMSO, -LOG(P-value) 0.711634): 0.8419
iBAQ Cmpd ([10]; replicates 1-3): 20.3934 and 20.6157 and 19.9486
